According to the supplement of paper PMC5579334:

Key:
[1] = tested on: ST8814; assay: relative IC50 (inflection point of fitted dose-response curve, CellTiter-Glo viability, 72 h; top asymptote may be below 50% inhibition); higher = less potent
In short: (§1)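 For this screen, 384-well plates were preprinted with each compound at five concentrations in 10-fold steps and seeded with MPNST cell lines or primary human Schwann cells at 750–1000 cells per well. Incubation lasted 72 h at 37 °C, 5% CO2, and CellTiter-Glo ATP luminescence, scaled between vehicle and positive-control wells and averaged over duplicates where available, served as viability. Logistic fits with four parameters were applied. Relative IC50 (censored at the top concentration) and drug sensitivity score derive from these fits, and percent inhibition is at the top concentration.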

[2] = tested on: YST-1; assay: as above
In short: as §1

[3] = tested on: HSC2; assay: as above
In short: as §1

[4] = tested on: HS-PSS; assay: as above
In short: as §1

[5] = tested on: STS26T; assay: as above
In short: as §1

[6] = tested on: HS-Sch-2; assay: as above
In short: as §1

[7] = tested on: S462; assay: as above
In short: as §1

[8] = tested on: HSC1; assay: as above
In short: as §1

[9] = tested on: S1507-2; assay: as above
In short: as §1

[10] = tested on: ST8814; assay: relative IC50 (inflection point of fitted dose-response curve, CellTox-Green cytotoxicity, 72 h; top asymptote may be below 50%); higher = less potent
In short: (§2)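 MPNST cell lines and primary human Schwann cells were grown for 72 h at 37 °C in 384-well plates containing five 10-fold compound dilutions. CellTox-Green, added before seeding at a final 1:1000 dilution, gave fluorescence from DNA released by disrupted cells, and signals were scaled to vehicle and positive-control wells. Curves were fitted with a four-parameter logistic model. Drug sensitivity score and relative IC50 come from these fits, with IC50 censored at the top concentration.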

[11] = tested on: HSC2; assay: as above
In short: as §2

[12] = tested on: STS26T; assay: as above
In short: as §2

[13] = tested on: HSC1; assay: as above
In short: as §2

[14] = tested on: S1507-2; assay: as above
In short: as §2

[15] = tested on: HS-PSS; assay: as above
In short: as §2

Compound | relative IC50 [1] [nM] | relative IC50 [2] [nM] | relative IC50 [3] [nM] | relative IC50 [4] [nM] | relative IC50 [5] [nM] | relative IC50 [6] [nM] | relative IC50 [7] [nM] | relative IC50 [8] [nM] | relative IC50 [9] [nM] | relative IC50 [10] [nM] | relative IC50 [11] [nM] | relative IC50 [12] [nM] | relative IC50 [13] [nM] | relative IC50 [14] [nM] | relative IC50 [15] [nM]
CCC1=C[C@@H]2CN(C1)Cc1c([nH]c3ccccc13)[C@@](C(=O)OC)(c1cc3c(cc1OC)N(C)[C@H]1[C@@](O)(C(=O)OC)[C@H](OC(C)=O)[C@]4(CC)C=CCN5CC[C@]31[C@@H]54)C2 [Vinorelbine] | 140 | 3 | 95.7 | 21.4 | 22.5 | 4.21 | 34 | 153 | 109 | 212 | 647 | 15.3 | 484 | 129 | –
COC(=O)C[C@](O)(CCCC(C)(C)O)C(=O)O[C@@H]1C(OC)=C[C@]23CCCN2CCc2cc4c(cc2[C@H]13)OCO4 [Omacetaxine] | 46.5 | 9.94 | 50.8 | 47 | 41.6 | 67.5 | 23.8 | 51.7 | 66.1 | 489 | 589 | 130 | 1090 | 524 | –
COc1ccc(-c2cc3c(C)nc(N)nc3n([C@H]3CC[C@H](OCCO)CC3)c2=O)cn1 | 209 | 57.8 | 270 | 404 | 124 | 476 | 196 | 197 | 89 | 1520 | 2710 | 350 | 501 | 1630 | –
C=CC(=O)N1CCC[C@@H](n2nc(-c3ccc(Oc4ccccc4)cc3)c3c(N)ncnc32)C1 [Ibrutinib] | > 1000 | > 1000 | > 1000 | – | > 1000 | > 1000 | > 1000 | > 1000 | > 1000 | > 1000 | > 1000 | > 1000 | > 1000 | > 1000 | > 1000
Cn1c(=O)n(-c2ccc(C(C)(C)C#N)cc2)c2c3cc(-c4cnc5ccccc5c4)ccc3ncc21 [Dactolisib] | 15.3 | 11.9 | 8.32 | 15.7 | 7.77 | 12.1 | 14.8 | 8.56 | 11 | > 1000 | > 1000 | > 1000 | > 1000 | > 1000 | –
CC[C@]1(O)C[C@@H]2CN(CCc3c([nH]c4ccccc34)[C@@](C(=O)OC)(c3cc4c(cc3OC)N(C)[C@H]3[C@@](O)(C(=O)OC)[C@H](OC(C)=O)[C@]5(CC)C=CCN6CC[C@]43[C@@H]65)C2)C1 [Vinblastine] | 2.98 | 3.76 | 5.82 | 10.9 | 2.86 | 2.21 | 3.13 | 6.83 | 5.3 | 2.83 | 13.7 | 2.01 | 31.9 | 4.53 | –
CCN(CC)CCCC(C)Nc1c2ccc(Cl)cc2nc2ccc(OC)cc12 (configuration not stated) [Mepacrine aq] | 929 | – | 1230 | – | 1320 | – | 918 | 1230 | 1070 | 2910 | 1170 | 2370 | 956 | 2200 | –
CS(=O)(=O)OCCCCOS(C)(=O)=O [Busulfan] | > 100000 | – | > 100000 | > 100000 | > 100000 | – | > 100000 | > 100000 | > 100000 | > 100000 | > 100000 | > 100000 | > 100000 | > 100000 | > 100000
O=C(O)C1(C(=O)O)CCC1.[NH2-].[NH2-].[Pt+2] [Carboplatin aq] | 24400 | – | 14600 | – | 19500 | – | 17000 | 14500 | 20600 | 25100 | 20500 | 27300 | 27600 | 37300 | –
CC(C)Cn1cnc2c(N)nc3ccccc3c21 [Imiquimod] | > 2500 | > 2500 | > 2500 | – | > 2500 | – | > 2500 | > 2500 | > 2500 | > 2500 | > 2500 | > 2500 | > 2500 | > 2500 | > 2500
Cc1sc2c(c1C)C(c1ccc(Cl)cc1)=N[C@@H](CC(=O)OC(C)(C)C)c1nnc(C)n1-2 [(+)JQ1] | 208 | – | 462 | – | 226 | – | 386 | 420 | 161 | 404 | > 10000 | > 10000 | > 10000 | 546 | –
CCN(CC)CCCC(C)Nc1ccnc2cc(Cl)ccc12 (configuration not stated) [Chloroquine aq] | 3100 | – | 13100 | – | 5430 | – | 6940 | 12300 | 1800 | 2820 | 19900 | 3190 | 15800 | 3280 | –
CNC(=O)c1cc(Oc2ccc(NC(=O)Nc3ccc(Cl)c(C(F)(F)F)c3)cc2)ccn1 [Sorafenib] | > 1000 | – | > 1000 | > 1000 | > 1000 | > 1000 | > 1000 | > 1000 | > 1000 | > 1000 | > 1000 | > 1000 | > 1000 | > 1000 | > 1000
Nc1nc(OCc2cc(Br)cs2)c2[nH]cnc2n1 [Lomeguatrib] | > 10000 | > 10000 | > 10000 | – | > 10000 | > 10000 | > 10000 | > 10000 | > 10000 | > 10000 | > 10000 | > 10000 | > 10000 | > 10000 | > 10000
CCNC(=O)c1noc(-c2cc(C(C)C)c(O)cc2O)c1-c1ccc(CN2CCOCC2)cc1 [NVP-AUY922] | 22.9 | – | 12 | – | 22.9 | – | 21.7 | 14.3 | 18.3 | 67.9 | 20.4 | 42.1 | 23.2 | 13.9 | –
O=C(Nc1ccncc1)C(=O)c1cn(Cc2ccc(Cl)cc2)c2ccccc12 [Indibulin] | 312 | 530 | 718 | – | 164 | 739 | 334 | 361 | 241 | 430 | 1580 | 146 | 2000 | 494 | > 10000
CC(=O)O[C@]1(C(C)=O)CC[C@H]2[C@@H]3C=C(C)C4=CC(=O)CC[C@]4(C)[C@H]3CC[C@@]21C [Megestrol] | > 10000 | – | > 10000 | – | > 10000 | – | > 10000 | > 10000 | > 10000 | > 10000 | > 10000 | > 10000 | > 10000 | > 10000 | –
CC(=O)O[C@@]12CO[C@@H]1C[C@H](O)[C@@]1(C)C(=O)[C@H](O)C3=C(C)[C@@H](OC(=O)[C@H](O)[C@@H](NC(=O)OC(C)(C)C)c4ccccc4)C[C@@](O)([C@@H](OC(=O)c4ccccc4)[C@H]21)C3(C)C [Docetaxel] | 3.95 | 1.02 | 4.15 | 3.86 | 1.07 | 2.11 | 0.759 | 3.08 | 8.6 | 4.62 | 8.43 | 1.15 | 6.11 | 6.13 | –
COC1=C2C[C@@H](C)C[C@H](OC)[C@H](O)[C@@H](C)/C=C(\C)[C@H](OC(N)=O)[C@@H](OC)/C=C\C=C(/C)C(=O)NC(=CC1=O)C2=O [Geldanamycin] | 765 | – | 338 | – | 780 | – | 454 | 363 | 1690 | 1320 | 211 | 1160 | 204 | 2650 | –
Cn1c(CCCC(=O)O)nc2cc(N(CCCl)CCCl)ccc21 [Bendamustine] | > 10000 | – | > 10000 | > 10000 | > 10000 | > 10000 | > 10000 | > 10000 | > 10000 | > 10000 | > 10000 | > 10000 | > 10000 | > 10000 | > 10000
S=P(N1CC1)(N1CC1)N1CC1 [Thio-TEPA] | > 50000 | > 50000 | > 50000 | > 50000 | > 50000 | – | > 50000 | > 50000 | > 50000 | > 50000 | > 50000 | > 50000 | > 50000 | > 50000 | > 50000
CC[C@@]1(O)C(=O)OCc2c1cc1n(c2=O)Cc2cc3ccccc3nc2-1 [Camptotechin] | 30.7 | – | 40.5 | – | 62.8 | – | 30.2 | 47.3 | 100 | 14.6 | 136 | 126 | 75.7 | 244 | –
OC[C@H]1O[C@@H](n2cnc3c2N=CNC[C@H]3O)C[C@@H]1O [Pentostatin] | > 10000 | – | > 10000 | > 10000 | > 10000 | > 10000 | > 10000 | > 10000 | > 10000 | > 10000 | > 10000 | > 10000 | > 10000 | > 10000 | > 10000
Cn1c(Nc2ccc(C(F)(F)F)cc2)nc2cc(Oc3ccnc(-c4ncc(C(F)(F)F)[nH]4)c3)ccc21 [RAF265] | 107 | 131 | 20.6 | 177 | 137 | – | 111 | 49.6 | 136 | > 1000 | > 1000 | > 1000 | > 1000 | > 1000 | > 1000
N#Cc1ccc(C(c2ccc(C#N)cc2)n2cncn2)cc1 [Letrozole] | > 10000 | > 10000 | > 10000 | – | > 10000 | – | > 10000 | > 10000 | > 10000 | > 10000 | > 10000 | > 10000 | > 10000 | > 10000 | > 10000
COc1cc2c(cc1-c1c(C)noc1C)ncc1[nH]c(=O)n([C@H](C)c3ccccn3)c12 [I-BET151] | 918 | 1070 | 1150 | 1710 | 1130 | 1060 | 1310 | 992 | 1250 | 1240 | > 10000 | > 10000 | – | 1400 | > 10000
